The values below are quoted from earlier work in patent publication US20130133101A1, “PLANTS RESISTANT TO PATHOGENS AND METHODS FOR PRODUCTION THEREOF” (GENOPLANTE-VALOR, priority 2010, published 2013).

Non-standard residues stand in square brackets, D forms with d. sY = N[C@@H](Cc1ccc(OS(=O)(=O)O)cc1)C(=O)O

One series relates to Botrytis tulipae. To be noted: in vitro, dose-dependent manner.
The subject of a further series is Phoma nareissi. The conditions noted are these: in vitro, dose-dependent manner.

On to H-[sY]I[sY]T-OH [PSKβ], for which the mycelium growth inhibition result in the series with Botrytis tulipae and with Phoma nareissi was “inhibit in vitro the mycelium growth” throughout.
As for H-[sY]I[sY]TQ-OH [PSKα], the mycelium growth inhibition entry with Botrytis tulipae and with Phoma nareissi was “inhibit in vitro the mycelium growth” in each case.
